Each compound was assayed on HL60 cells (assay: AsedaSciences SYSTEMETRIC Cell Health Screen (flow cytometry toxicity profiling)). Settings: HL60, 4 h, 5 nM–100 µM, probability 0–1, n = 2.
Outline: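 Risk scores derive from a logistic-regression ML classifier comparing flow-cytometric stress phenotypes with those of 300 reference compounds of known high or low human risk. Phenotypes: light scatter plus fluorescent physiological dyes, twelve parameters, no gating. Compounds tested 5 nM–100 µM (3× steps, duplicate) on HL60 cells, 4 h, 37 °C.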

| Compound | CC: Cell Cycle score | CM: Cell morphology score | CMI: Cell membrane integrity score | GSH: Glutathione score | MMP: Mitochondrial membrane depolarization score | NMI1: Nuclear membrane integrity 1 score | NMI2: Nuclear membrane integrity 2 score | ROS: Reactive superoxide species score |
| --- | --- | --- | --- | --- | --- | --- | --- | --- |
| C#Cc1cc(Nc2ncnc3ccc(I)cc23)ccc1Cl [Compound 37] | 0.080 | 0.26 | 0.54 | 0.18 | 0.24 | 0.41 | 0.33 | 0.91 |
| C#Cc1ccc(F)c(Nc2ncnc3cc(I)ccc23)c1 [Compound 38] | 0.98 | 1.00 | 1.00 | 1.00 | 0.96 | 0.99 | 1.00 | 1.00 |
| C#Cc1cccc(Nc2ccnc3cc(I)ccc23)c1F [Compound 39] | 0.64 | 0.98 | 0.30 | 0.92 | 0.60 | 0.15 | 0.75 | 0.99 |
| C#Cc1cc(Nc2ncnc3cc(I)ccc23)ccc1F [Compound 40] | 0.28 | 0.049 | 0.26 | 0.033 | 0.59 | 0.46 | 0.33 | 0.34 |
| C#Cc1ccc(F)c(Nc2ncnc3cc(OC)c(OC)cc23)c1 [Compound 42] | 0.67 | 0.31 | 0.78 | 0.25 | 0.89 | 0.13 | 0.85 | 0.63 |
| C#Cc1cccc(Nc2ncnc3cc(OC)c(OC)cc23)c1F [Compound 43] | 0.059 | 0.0093 | 0.56 | 0.38 | 0.28 | 0.10 | 0.59 | 0.024 |

Same assay, conditions: HL60, 4 h, 5 nM–100 µM, probability (0–1) of high-risk class, n = 2

| Compound | CHI: Cell Health Index |
| --- | --- |
| C#Cc1cc(Nc2ncnc3ccc(I)cc23)ccc1Cl [Compound 37] | 0.33 |
| C#Cc1ccc(F)c(Nc2ncnc3cc(I)ccc23)c1 [Compound 38] | 0.88 |
| C#Cc1cccc(Nc2ccnc3cc(I)ccc23)c1F [Compound 39] | 0.43 |
| C#Cc1cc(Nc2ncnc3cc(I)ccc23)ccc1F [Compound 40] | 0.38 |
| C#Cc1ccc(F)c(Nc2ncnc3cc(OC)c(OC)cc23)c1 [Compound 42] | 0.48 |
| C#Cc1cccc(Nc2ncnc3cc(OC)c(OC)cc23)c1F [Compound 43] | 0.33 |

These compounds were tested on UM-Chor1 patient-derived chordoma cell line (assay: Cell viability assay (alamarBlue, 72 h), UM-Chor1). Settings: n = 4, 72 h.
Type: cell-based, human
Description: (§1) Chordoma cell lines were cultured as described previously[10],[12],[33],[34]. Briefly, U-CH1 and U-CH2 cell lines were cultured in 4:1 IMDM:RPMI medium supplemented with 10% fetal bovine serum (FBS) and 1% penicillin/streptomycin in gel-coated flasks. […] CH22, UM-Chor1, U-CH12, and U-CH7 cell lines were cultured in RPMI medium supplemented with 10% FBS and 1% penicillin/streptomycin. The cell lines all undergo regular mycoplasma screening.
(§2) Cells were seeded in 384 well plates and were treated with test compound in quadruplicate 24 h after plating. Cell viability was assessed at 72 h using alamarBlue (ThermoFisher, USA). […] IC50 values were determined by four-parameter nonlinear regression analyses using GraphPad Prism™ version 8 software (San Diego, CA).

| Compound | IC50 [µM] |
| --- | --- |
| C#Cc1cc(Nc2ncnc3ccc(I)cc23)ccc1Cl [Compound 37] | > 100 |
| C#Cc1ccc(F)c(Nc2ncnc3cc(I)ccc23)c1 [Compound 38] | > 100 |
| C#Cc1cccc(Nc2ccnc3cc(I)ccc23)c1F [Compound 39] | 62 |
| C#Cc1cc(Nc2ncnc3cc(I)ccc23)ccc1F [Compound 40] | > 100 |
| C#Cc1ccc(F)c(Nc2ncnc3cc(OC)c(OC)cc23)c1 [Compound 42] | > 100 |
| C#Cc1cccc(Nc2ncnc3cc(OC)c(OC)cc23)c1F [Compound 43] | > 100 |

The compounds below were run on U-CH7 patient-derived chordoma cell line (assay: Cell viability assay (alamarBlue, 72 h), U-CH7). Settings: n = 4, 72 h.
Type: cell-based, human
Description: as §1, §2

| Compound | IC50 [µM] |
| --- | --- |
| C#Cc1cc(Nc2ncnc3ccc(I)cc23)ccc1Cl [Compound 37] | > 100 |
| C#Cc1ccc(F)c(Nc2ncnc3cc(I)ccc23)c1 [Compound 38] | > 100 |
| C#Cc1cccc(Nc2ccnc3cc(I)ccc23)c1F [Compound 39] | 49 |
| C#Cc1cc(Nc2ncnc3cc(I)ccc23)ccc1F [Compound 40] | > 100 |
| C#Cc1ccc(F)c(Nc2ncnc3cc(OC)c(OC)cc23)c1 [Compound 42] | > 100 |
| C#Cc1cccc(Nc2ncnc3cc(OC)c(OC)cc23)c1F [Compound 43] | 57 |

Each compound was assayed against EGFR (Homo sapiens, UniProt P00533) (assay: ProQinase in-cell EGFR assay (EGFR phosphorylation in A431 cells)). Settings: ProQinase in-cell EGFR assay, A431 cells, n = 1.
Chain of EGFR (P00533 25-1210): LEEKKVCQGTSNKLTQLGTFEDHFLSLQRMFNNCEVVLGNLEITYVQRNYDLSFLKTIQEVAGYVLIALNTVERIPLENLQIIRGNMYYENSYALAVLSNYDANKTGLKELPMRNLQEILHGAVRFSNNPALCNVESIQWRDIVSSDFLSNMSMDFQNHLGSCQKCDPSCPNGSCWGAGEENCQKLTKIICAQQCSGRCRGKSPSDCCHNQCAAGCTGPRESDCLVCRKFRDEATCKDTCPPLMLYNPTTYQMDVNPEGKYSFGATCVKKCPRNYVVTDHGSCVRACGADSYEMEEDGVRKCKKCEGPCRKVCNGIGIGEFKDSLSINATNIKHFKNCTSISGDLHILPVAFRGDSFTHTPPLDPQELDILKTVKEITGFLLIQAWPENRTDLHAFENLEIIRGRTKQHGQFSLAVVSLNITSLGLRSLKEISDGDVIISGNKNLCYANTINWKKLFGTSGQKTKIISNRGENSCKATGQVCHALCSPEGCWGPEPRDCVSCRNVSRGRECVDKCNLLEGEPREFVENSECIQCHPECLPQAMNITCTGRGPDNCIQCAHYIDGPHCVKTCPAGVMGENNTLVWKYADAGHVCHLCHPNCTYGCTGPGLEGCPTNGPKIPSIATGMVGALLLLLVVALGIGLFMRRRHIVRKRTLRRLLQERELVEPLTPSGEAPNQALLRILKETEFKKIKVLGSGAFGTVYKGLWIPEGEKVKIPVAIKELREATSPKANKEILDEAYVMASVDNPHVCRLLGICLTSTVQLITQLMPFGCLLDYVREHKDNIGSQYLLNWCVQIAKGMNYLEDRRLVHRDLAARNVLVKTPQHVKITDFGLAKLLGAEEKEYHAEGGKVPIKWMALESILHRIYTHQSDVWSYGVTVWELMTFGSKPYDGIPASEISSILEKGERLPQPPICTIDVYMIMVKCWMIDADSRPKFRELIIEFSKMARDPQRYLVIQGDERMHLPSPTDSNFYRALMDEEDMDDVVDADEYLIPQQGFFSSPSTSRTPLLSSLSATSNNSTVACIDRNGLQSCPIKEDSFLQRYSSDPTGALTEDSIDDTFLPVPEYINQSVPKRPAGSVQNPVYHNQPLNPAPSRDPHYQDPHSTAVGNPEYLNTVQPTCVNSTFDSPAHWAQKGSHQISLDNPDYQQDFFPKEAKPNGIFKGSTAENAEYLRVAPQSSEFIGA
Type: cell-based
Design: This cell line endogenously expresses a high level of EGFR; endogenous in cells; host or cells: A431
Excerpt: In addition, we ran an EGFR in-cell target engagement assay, measuring in-cell EGFR phosphorylation, using the human epidermoid carcinoma cell line A431. This cell line endogenously expresses a high level of EGFR, and stimulation of these cells with human epidermal growth factor (EGF) results in receptor tyrosine autophosphorylation.

| Compound | IC50 [nM] |
| --- | --- |
| C#Cc1cc(Nc2ncnc3ccc(I)cc23)ccc1Cl [Compound 37] | 2000 |
| C#Cc1ccc(F)c(Nc2ncnc3cc(I)ccc23)c1 [Compound 38] | 5200 |
| C#Cc1cccc(Nc2ccnc3cc(I)ccc23)c1F [Compound 39] | 1700 |
| C#Cc1cc(Nc2ncnc3cc(I)ccc23)ccc1F [Compound 40] | 3600 |
| C#Cc1ccc(F)c(Nc2ncnc3cc(OC)c(OC)cc23)c1 [Compound 42] | 290 |
| C#Cc1cccc(Nc2ncnc3cc(OC)c(OC)cc23)c1F [Compound 43] | 60 |

What follows are compounds tested on U-CH2 chordoma cell line (assay: Cell viability assay (alamarBlue, 72 h), U-CH2). Settings: n = 4, 72 h.
Type: cell-based, human
Outline: (§3)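 Compound added in quadruplicate 24 h after plating; cultures maintained in 4:1 IMDM:RPMI, 10% FBS, gel-coated flasks.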

| Compound | IC50 [µM] | U-CH2 IC50 |
| --- | --- | --- |
| C#Cc1cc(Nc2ncnc3ccc(I)cc23)ccc1Cl [Compound 37] | 5 |  |
| C#Cc1ccc(F)c(Nc2ncnc3cc(I)ccc23)c1 [Compound 38] | > 100 |  |
| C#Cc1cccc(Nc2ccnc3cc(I)ccc23)c1F [Compound 39] | 15 |  |
| C#Cc1cc(Nc2ncnc3cc(I)ccc23)ccc1F [Compound 40] | > 100 | no activity |
| C#Cc1ccc(F)c(Nc2ncnc3cc(OC)c(OC)cc23)c1 [Compound 42] | 20 |  |
| C#Cc1cccc(Nc2ncnc3cc(OC)c(OC)cc23)c1F [Compound 43] | 7.1 |  |

Each compound was assayed on WS1 human fibroblast cell line (assay: Cell viability assay, WS1 toxicity control). Settings: n = 4, nonspecific toxicity control.
Type: cell-based
Description: as §2

| Compound | IC50 [µM] |
| --- | --- |
| C#Cc1cc(Nc2ncnc3ccc(I)cc23)ccc1Cl [Compound 37] | > 100 |
| C#Cc1ccc(F)c(Nc2ncnc3cc(I)ccc23)c1 [Compound 38] | > 100 |
| C#Cc1cccc(Nc2ccnc3cc(I)ccc23)c1F [Compound 39] | 40 |
| C#Cc1cc(Nc2ncnc3cc(I)ccc23)ccc1F [Compound 40] | > 100 |
| C#Cc1ccc(F)c(Nc2ncnc3cc(OC)c(OC)cc23)c1 [Compound 42] | 20 |
| C#Cc1cccc(Nc2ncnc3cc(OC)c(OC)cc23)c1F [Compound 43] | 12 |

Each compound was assayed on U-CH12 patient-derived chordoma cell line (assay: Cell viability assay (alamarBlue, 72 h), U-CH12). Settings: n = 4, 72 h.
Type: cell-based, human
Description: as §1, §2

| Compound | IC50 [µM] |
| --- | --- |
| C#Cc1cc(Nc2ncnc3ccc(I)cc23)ccc1Cl [Compound 37] | > 100 |
| C#Cc1ccc(F)c(Nc2ncnc3cc(I)ccc23)c1 [Compound 38] | > 100 |
| C#Cc1cccc(Nc2ccnc3cc(I)ccc23)c1F [Compound 39] | 33 |
| C#Cc1cc(Nc2ncnc3cc(I)ccc23)ccc1F [Compound 40] | > 100 |
| C#Cc1ccc(F)c(Nc2ncnc3cc(OC)c(OC)cc23)c1 [Compound 42] | > 100 |
| C#Cc1cccc(Nc2ncnc3cc(OC)c(OC)cc23)c1F [Compound 43] | > 100 |

Each compound was assayed on U-CH1 chordoma cell line (assay: Cell viability assay (alamarBlue, 72 h), U-CH1). Settings: n = 4, 72 h.
Type: cell-based, human
Outline: as §3

| Compound | IC50 [µM] | U-CH1 IC50 |
| --- | --- | --- |
| C#Cc1cc(Nc2ncnc3ccc(I)cc23)ccc1Cl [Compound 37] | 31 |  |
| C#Cc1ccc(F)c(Nc2ncnc3cc(I)ccc23)c1 [Compound 38] | 15 |  |
| C#Cc1cccc(Nc2ccnc3cc(I)ccc23)c1F [Compound 39] | 2.4 |  |
| C#Cc1cc(Nc2ncnc3cc(I)ccc23)ccc1F [Compound 40] | > 100 | no activity |
| C#Cc1ccc(F)c(Nc2ncnc3cc(OC)c(OC)cc23)c1 [Compound 42] | 6.7 |  |
| C#Cc1cccc(Nc2ncnc3cc(OC)c(OC)cc23)c1F [Compound 43] | 2 |  |

The compounds below were run on CH22 patient-derived chordoma cell line (assay: Cell viability assay (alamarBlue, 72 h), CH22). Settings: n = 4, 72 h.
Type: cell-based, human
Description: as §1, §2

| Compound | IC50 [µM] |
| --- | --- |
| C#Cc1cc(Nc2ncnc3ccc(I)cc23)ccc1Cl [Compound 37] | > 100 |
| C#Cc1ccc(F)c(Nc2ncnc3cc(I)ccc23)c1 [Compound 38] | > 100 |
| C#Cc1cccc(Nc2ccnc3cc(I)ccc23)c1F [Compound 39] | 40 |
| C#Cc1cc(Nc2ncnc3cc(I)ccc23)ccc1F [Compound 40] | 50 |
| C#Cc1ccc(F)c(Nc2ncnc3cc(OC)c(OC)cc23)c1 [Compound 42] | 4.2 |
| C#Cc1cccc(Nc2ncnc3cc(OC)c(OC)cc23)c1F [Compound 43] | 5.8 |
